Source: ChEMBL document CHEMBL5030511, “Targeting KRAS Mutant Cancers via Combination Treatment: Discovery of a 5-Fluoro-4-(3H)-quinazolinone Aryl Urea pan-RAF Kinase Inhibitor” (J Med Chem, 2021)
Converted amounts (≈) assume the structure as drawn. Values belong to the compound of their own block, whether it stands above or below them. The source made the active and inactive calls. The rule behind the calls is not given here.

How the values were obtained:
[1] = test system: A549; assay: Antiproliferative activity against human A549 cells harboring KRAS mutant assessed as reduction in cell viability incubated for 24 hrs by Click-iT EdU cell proliferation imaging assay; assay type: functional, cell-based; conditions: A549, 24 h
[2] = test system: A-375; assay: Antiproliferative activity against human A-375 cells harboring BRAF mutant assessed as reduction in cell viability incubated for 24 hrs by Click-iT EdU cell proliferation imaging assay; assay type: functional, cell-based; conditions: A-375, 24 h
[3] = molecular target: RAF proto-oncogene serine/threonine-protein kinase (Homo sapiens, UniProt P04049, Y340D/Y341D)
RAF proto-oncogene serine/threonine-protein kinase, sequence (P04049 whole entry Y340D/Y341D): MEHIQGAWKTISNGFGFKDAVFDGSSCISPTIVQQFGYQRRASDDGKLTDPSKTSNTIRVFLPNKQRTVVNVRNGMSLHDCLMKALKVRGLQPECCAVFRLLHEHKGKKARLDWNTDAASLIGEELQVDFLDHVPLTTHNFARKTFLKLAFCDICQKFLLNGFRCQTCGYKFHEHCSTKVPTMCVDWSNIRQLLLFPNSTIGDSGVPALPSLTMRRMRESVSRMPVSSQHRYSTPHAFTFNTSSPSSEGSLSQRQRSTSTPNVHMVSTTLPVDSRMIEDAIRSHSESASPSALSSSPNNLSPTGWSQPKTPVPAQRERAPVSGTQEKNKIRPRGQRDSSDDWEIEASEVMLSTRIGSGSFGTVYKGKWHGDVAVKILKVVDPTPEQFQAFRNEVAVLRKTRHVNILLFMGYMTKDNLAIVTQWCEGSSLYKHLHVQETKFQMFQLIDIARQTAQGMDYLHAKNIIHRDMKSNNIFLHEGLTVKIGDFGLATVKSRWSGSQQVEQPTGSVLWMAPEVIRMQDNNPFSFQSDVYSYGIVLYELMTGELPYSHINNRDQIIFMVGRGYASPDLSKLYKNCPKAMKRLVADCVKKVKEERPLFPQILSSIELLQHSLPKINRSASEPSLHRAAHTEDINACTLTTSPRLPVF

[4] = molecular target: Serine/threonine-protein kinase B-raf (Homo sapiens, UniProt P15056)
Serine/threonine-protein kinase B-raf, sequence (P15056 whole entry): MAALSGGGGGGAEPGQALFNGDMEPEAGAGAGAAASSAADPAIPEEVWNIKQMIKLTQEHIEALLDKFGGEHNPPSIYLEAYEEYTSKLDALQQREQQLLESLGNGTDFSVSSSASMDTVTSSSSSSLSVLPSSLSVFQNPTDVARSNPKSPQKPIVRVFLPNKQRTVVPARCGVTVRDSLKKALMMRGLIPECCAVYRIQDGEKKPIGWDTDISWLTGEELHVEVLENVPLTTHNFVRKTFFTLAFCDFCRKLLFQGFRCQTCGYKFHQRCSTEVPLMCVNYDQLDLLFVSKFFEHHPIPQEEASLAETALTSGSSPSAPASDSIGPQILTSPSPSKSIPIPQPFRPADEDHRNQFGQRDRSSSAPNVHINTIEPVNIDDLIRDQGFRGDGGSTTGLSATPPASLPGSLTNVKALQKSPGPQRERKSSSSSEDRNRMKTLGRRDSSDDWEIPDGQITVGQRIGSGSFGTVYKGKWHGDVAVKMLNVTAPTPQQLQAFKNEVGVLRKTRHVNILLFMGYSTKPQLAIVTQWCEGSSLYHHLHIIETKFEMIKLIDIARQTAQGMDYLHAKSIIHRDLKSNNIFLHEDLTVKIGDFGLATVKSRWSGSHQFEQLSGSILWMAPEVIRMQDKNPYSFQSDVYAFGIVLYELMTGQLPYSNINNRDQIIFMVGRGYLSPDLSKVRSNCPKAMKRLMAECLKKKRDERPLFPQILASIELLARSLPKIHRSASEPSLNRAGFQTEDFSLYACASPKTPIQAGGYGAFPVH
Description: Inhibition of BRAF (unknown origin) (416 to 766) inactive MAP2K1 as substrate preincubated for 30 mins measured after 90 mins by DELFIA assay

[5] = test system: A549; assay: Synergistic antiproliferative activity against human A549 cells harboring KRAS mutant assessed as reduction in cell viability incubated for 24 hrs in presence of 100 nM cobimetinib by Click-iT EdU cell proliferation imaging assay; assay type: functional, cell-based; conditions: A549, 24 h
[6] = test system: A549; assay: Synergistic antiproliferative activity against human A549 cells harboring KRAS mutant assessed as inhibition of cell growth in presence of Cobimetinib by EdU staining based assay; assay type: functional; conditions: dose 0.02-5 µM
[7] = Toxicity in NCR nude mouse xenografted with human HCT-116 cells harboring KRAS mutant assessed as body weight loss at 10 mg/kg, po bid for 21 days; assay type: organism-based; conditions: in vivo, 504 h, time 21 day
[8] = Half life in mouse at 1 mg/kg, iv; assay type: ADME, organism-based; conditions: in vivo
[9] = Clearance in mouse at 1 mg/kg, iv; assay type: ADME, organism-based; conditions: in vivo
[10] = test system: Mus musculus; assay: Induction of stabilization of CRAF phosphorylation in human HCT-116 cells xenografted NCR nude mouse assessed as decrease in pERK level at 10 mg/kg, po bid for 4 days and measured after 2 to 8 hrs; assay type: functional, organism-based; conditions: time 4.0 day
[11] = test system: HCT-116; assay: Antitumour activity against human HCT-116 cells harboring KRAS mutant xenografted in NCR nude mouse assessed as tumor growth inhibition at 10 mg/kg, po bid for 21 days; assay type: functional, organism-based; conditions: time 21.0 day
[12] = Lipophilicity, log D of the compound at pH 7.4; assay type: physicochemical; conditions: buffer
[13] = test system: Mus musculus; assay: Induction of stabilization of CRAF phosphorylation in human HCT-116 cells xenografted NCR nude mouse assessed as decrease in pRSK level at 10 mg/kg, po bid for 4 days and measured after 2 to 8 hrs; assay type: functional, organism-based; conditions: time 4.0 day
[14] = test system: HCT-116; assay: Synergistic antiproliferative activity against human HCT-116 cells harboring KRAS mutant assessed as inhibition of cell growth at 0.003 to 0.93 uM in presence of Cobimetinib by EdU staining based assay; assay type: functional; conditions: dose 0.003-0.93 µM
[15] = test system: Mus musculus; assay: Induction of stabilization of CRAF phosphorylation in human HCT-116 cells xenografted NCR nude mouse assessed as decrease in pMEK level at 10 mg/kg, po bid for 4 days and measured after 2 to 8 hrs; assay type: functional, organism-based; conditions: time 4.0 day
[16] = Apparent permeability from apical to basolateral side in dog MDCK cells; assay type: ADME, cell-based, Canis lupus familiaris
[17] = Kinetic solubility of the compound in pH 7.4 PBS buffer; assay type: physicochemical; conditions: read-out: Kinetic_solubility
[18] = Toxicity in NCR nude mouse xenografted with human HCT-116 cells harboring KRAS mutant assessed as body weight loss at 10 mg/kg, po bid for 21 days in presence of 5 mg/kg Cobimetinib; assay type: organism-based; conditions: in vivo, 504 h, time 21 day
[19] = test system: Mus musculus; assay: Induction of stabilization of CRAF phosphorylation in human HCT-116 cells xenografted NCR nude mouse assessed as decrease in pRSK level at 10 mg/kg, po bid for 4 days in presence of Cobimetinib and measured after 8 hrs; assay type: functional, organism-based; conditions: time 4.0 day
[20] = test system: HCT-116; assay: Antitumour activity against human HCT-116 cells harboring KRAS mutant xenografted in NCR nude mouse assessed as tumor growth inhibition at 10 mg/kg, po bid for 21 days in presence of 5 mg/kg Cobimetinib; assay type: functional; conditions: HCT-116, po, 504 h, time 21 day, read-out: TGI
[21] = Volume of distribution at steady state in mouse at 1 mg/kg, iv; assay type: ADME, organism-based; conditions: in vivo, read-out: Vdss
[22] = test system: Mus musculus; assay: Induction of stabilization of CRAF phosphorylation in human HCT-116 cells xenografted NCR nude mouse assessed as decrease in pERK level at 10 mg/kg, po bid for 4 days in presence of Cobimetinib and measured after 8 hrs; assay type: functional, organism-based; conditions: time 4.0 day
[23] = test system: A-375; assay: Additive antiproliferative activity against human A-375 cells harboring BRAF mutant assessed as inhibition of cell growth in presence of Cobimetinib by EdU staining based assay; assay type: functional
[24] = test system: Mus musculus; assay: Induction of CRAF phosphorylation in human HCT-116 cells xenografted NCR nude mouse at 10 mg/kg, po bid for 4 days in presence of Cobimetinib and measured after 2 to 8 hrs; assay type: functional, organism-based; conditions: time 4.0 day
[25] = Oral bioavailability in mouse using amorphous spray-dried dispersion at 30 mg/kg; assay type: ADME, organism-based; conditions: in vivo
[26] = Oral bioavailability in mouse using PEG 400 at 5 mg/kg; assay type: ADME, organism-based; conditions: in vivo
[27] = test system: Mus musculus; assay: Inhibition of pERK in human HCT-116 cells xenografted NCR nude mouse at 5 mg/kg, po qd for 4 days and measured after 2 to 8 hrs; assay type: functional, organism-based; conditions: time 4.0 day
[28] = test system: HCT-116; assay: Antitumour activity against human HCT-116 cells harboring KRAS mutant xenografted in NCR nude mouse assessed as tumor growth inhibition at 5 mg/kg, po qd for 21 days; assay type: functional, organism-based; conditions: time 21.0 day
[29] = Oral bioavailability in mouse using methylcellulose-tween at 5 mg/kg; assay type: ADME, organism-based; conditions: in vivo
[30] = Oral bioavailability in mouse using amorphous spray-dried dispersion at 25 mg/kg; assay type: ADME, organism-based; conditions: in vivo

IC50 [1]: 528 nM | IC50 [2]: 8 nM | Ki [3]: < 0.05 nM | Ki [4]: < 0.08 nM | IC50 [5]: 96.8 nM
Structure (SMILES): Cc1cc(F)c(NC(=O)NCCC(C)(C)C)cc1NC(=O)c1cccc2c(N)ncnc12

IC50 [1]: 986 nM | IC50 [2]: 47.4 nM | Ki [3]: < 0.05 nM | IC50 [5]: 158 nM
Structure (SMILES): COc1n[nH]c2ncc(NC(=O)c3cc(NC(=O)NCCC(C)(C)C)c(F)cc3C)cc12

IC50 [1]: 1400 nM | IC50 [2]: 85.3 nM | Ki [3]: < 0.05 nM | Ki [4]: < 0.08 nM | IC50 [5]: 104 nM
Structure (SMILES): Cc1cc(F)c(NC(=O)NCCC(C)(C)C)cc1NC(=O)N(C)c1cc(N)ncn1

IC50 [1]: 2900 nM | half-life [8]: 48 min | clearance [9]: 27 mL/min/kg | IC50 [2]: 112 nM | Ki [3]: 0.061 nM | logD [12]: 4.47 | Papp A→B [16]: 13 ×10⁻⁶ cm/s | solubility kinetic [17]: 3 µM (≈ 1.33 µg/mL) | Ki [4]: < 0.08 nM | Vd [21]: 1.4 L/kg | bioavailability [25]: 60% | IC50 [5]: 169 nM | bioavailability [26]: 26%
Structure (SMILES): Cc1cc(F)c(NC(=O)NCCC(C)(C)C)cc1Nc1ccc2ncn(C)c(=O)c2c1F
Activity [6]: Dose-Dependent Effect | Activity [7]: 10% | Activity [10]: Active | Activity [11]: Active | Activity [13]: Active | Activity [14]: Active | Activity [15]: Active | Activity [18]: Non-Toxic | Activity [19]: Active | inhibition in vivo at 10 mg/kg [20]: 110% | Activity [22]: Active | Activity [23]: Active | Activity [24]: Active

Structure (SMILES): O=C(c1ccc(F)c(F)c1Nc1ccc(I)cc1F)N1CC(O)([C@@H]2CCCCN2)C1
inhibition [27]: Active | Activity [28]: Active

IC50 [1]: 2400 nM | IC50 [2]: 92.6 nM | Ki [3]: 0.06 nM | Ki [4]: < 0.08 nM | IC50 [5]: 208 nM
Structure (SMILES): CNc1cc(-c2cccnc2Nc2cc(NC(=O)NCCC(C)(C)C)c(F)cc2C)ncn1

IC50 [1]: 2700 nM | half-life [8]: 30 min | clearance [9]: 50 mL/min/kg | IC50 [2]: 405 nM | Ki [3]: < 0.05 nM | logD [12]: 4.47 | Papp A→B [16]: 3.6 ×10⁻⁶ cm/s | solubility kinetic [17]: < 1 µM | bioavailability [29]: 0% | bioavailability [30]: 2% | Ki [4]: < 0.08 nM | Vd [21]: 0.94 L/kg | IC50 [5]: 253 nM
Structure (SMILES): Cc1cc(F)c(NC(=O)NCCC(C)(C)C)cc1Nc1ccc2ncn(C)c(=O)c2c1
